In US7544698B2, “Indoles and benzoimidazoles as modulators of the histamine H4 receptor” (Janssen Pharmaceutica, N.V., priority 2006, dated 2009):
Structures can show the parent of a compound that is named as a salt.

Molecular target: T1, human histamine H4 receptor (Homo sapiens, UniProt Q9H3N8)
T1 construct: expressed in transfected cells; host or cells: SK-N-MC cells or COS7 cells, transiently transfected with pH4R; cell membranes
Experiment: Binding Assay on Recombinant Human Histamine H4 Receptor (3H-histamine competition, membranes of transfected SK-N-MC or COS7 cells)
Details: competition with 3H-histamine (5 nM ligand, KD 5 nM), Cheng-Prusoff; mean of results; > = solubility limit or highest concentration tested
Experimental: Binding Assay on Recombinant Human Histamine H4 Receptor
SK-N-MC cells or COS7 cells were transiently transfected with pH4R and grown in 150 cm^2 tissue culture dishes. Cells were washed with saline solution, scraped with a cell scraper and collected by centrifugation (1000 rpm, 5 min). Cell membranes were prepared by homogenization of the cell pellet in 20 mM Tris-HCl with a polytron tissue homogenizer for 10 sec at high speed. Homogenate was centrifuged at 1000 rpm for 5 min at 4° C. The supernatant was then collected and centrifuged at 20,000×g for 25 min at 4° C. The final pellet was resuspended in 50 mM Tris-HCl. […] Incubation occurred at room temperature for 45 min. Membranes were harvested by rapid filtration over Whatman GF/C filters and washed 4 times with ice-cold 50 mM Tris HCl. Filters were then dried, mixed with scintillant and counted for radioactivity. SK-N-MC or COS7 cells expressing human histamine H4 receptor were used to measure the affinity of binding of other compounds and their ability to displace ^3H-ligand binding by incubating the above-described reaction in the presence of various concentrations of inhibitor or compound to be tested.

T1 sequence (Q9H3N8 whole entry): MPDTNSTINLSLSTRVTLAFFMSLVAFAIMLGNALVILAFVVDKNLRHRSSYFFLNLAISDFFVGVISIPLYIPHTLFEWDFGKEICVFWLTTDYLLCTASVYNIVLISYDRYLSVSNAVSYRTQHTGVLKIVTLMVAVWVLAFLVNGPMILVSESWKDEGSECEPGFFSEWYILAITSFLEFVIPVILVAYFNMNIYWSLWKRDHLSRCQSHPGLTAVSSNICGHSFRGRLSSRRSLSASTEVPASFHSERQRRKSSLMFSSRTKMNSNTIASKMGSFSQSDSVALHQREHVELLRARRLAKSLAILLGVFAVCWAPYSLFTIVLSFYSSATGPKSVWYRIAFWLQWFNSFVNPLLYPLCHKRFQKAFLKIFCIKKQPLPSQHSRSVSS

| SMILES | Ki [nM] |
| --- | --- |
| CN1C[C@@H]2C[C@H]1CN2C(=O)c1cc2ccccc2[nH]1 [Example 2, (S,S)-(1H-Indol-2-yl)-(5-methyl-2,5-diaza-bicyclo[2.2.1]hept-2-yl)-methanone] | 3200 |
| O=C(c1cc2ccccc2[nH]1)N1C[C@@H]2CCCN[C@@H]2C1 [Example 6, (S,S)-(1H-Indol-2-yl)-(octahydro-pyrrolo[3,4-b]pyridin-6-yl)-methanone trifluoroacetic acid salt] | > 10000 |
| CNC1CCN(C(=O)c2nc3ccccc3[nH]2)C1 (centres unmarked) [Example 30, (1H-Benzoimidazol-2-yl)-(3-methylamino-pyrrolidin-1-yl)-methanone hydrochloride salt] | 2000 |
| CN[C@@H]1CCN(C(=O)c2cc3cccc(C)c3[nH]2)C1 [Example 19, (R)-(3-Methylamino-pyrrolidin-1-yl)-(7-methyl-1H-indol-2-yl)-methanone] | 150 |
| CN1CCC[C@@H]2CN(C(=O)c3cc4ccccc4[nH]3)C[C@@H]21 (relative stereo) [Example 27, cis-(1H-Indol-2-yl)-(1-methyl-octahydro-pyrrolo[3,4-b]pyridin-6-yl)-methanone] | 560 |
| O=C(c1cc2cccc([N+](=O)[O-])c2[nH]1)N1C[C@H]2CCCN[C@H]2C1 (relative stereo) [Example 14, cis-(7-Nitro-1H-indol-2-yl)-(octahydro-pyrrolo[3,4-b]pyridin-6-yl)-methanone hydrochloride salt] | > 10000 |
| CN[C@@H]1CCN(C(=O)c2cc3c(F)cc(F)cc3[nH]2)C1 [Example 23, (R)-(4,6-Difluoro-1H-indol-2-yl)-(3-methylamino-pyrrolidin-1-yl)-methanone] | 680 |
| CN[C@@H]1CCN(C(=O)c2cc3cc(Cl)ccc3[nH]2)C1 [Example 8, (R)-(5-Chloro-1H-indol-2-yl)-(3-methylamino-pyrrolidin-1-yl)-methanone] | 53 |
| O=C(c1cc2ccccc2[nH]1)N1C[C@H]2CCCN[C@H]2C1 (relative stereo) [Example 5, cis-(1H-Indol-2-yl)-(octahydro-pyrrolo[3,4-b]pyridin-6-yl)-methanone trifluoroacetic acid salt] | 40 |
| CN[C@H]1CCN(C(=O)c2cc3cc(F)ccc3[nH]2)C1 [Example 16, (S)-(5-Fluoro-1H-indol-2-yl)-(3-methylamino-pyrrolidin-1-yl)-methanone] | 680 |
| O=C(c1cc2cc(Cl)ccc2[nH]1)N1C[C@@H]2CCCN[C@@H]2C1 [Example 12, (S,S)-(5-Chloro-1H-indol-2-yl)-(octahydro-pyrrolo[3,4-b]pyridin-6-yl)-methanone hydrochloride salt] | > 10000 |
| CN[C@H]1CCN(C(=O)c2cc3c(F)cc(F)cc3[nH]2)C1 [Example 22, (S)-(4,6-Difluoro-1H-indol-2-yl)-(3-methylamino-pyrrolidin-1-yl)-methanone] | > 5000 |
| CN[C@@H]1CCN(C(=O)c2cc3ccccc3[nH]2)C1 [Example 4, (R)-(1H-Indol-2-yl)-(3-methylamino-pyrrolidin-1-yl)-methanone hydrochloride salt] | 160 |
| O=C(c1cc2cc(F)ccc2[nH]1)N1C[C@H]2CCCN[C@H]2C1 (relative stereo) [Example 13, cis-(5-Fluoro-1H-indol-2-yl)-(octahydro-pyrrolo[3,4-b]pyridin-6-yl)-methanone hydrochloride salt] | 28 |
| O=C(c1nc2cc(Cl)ccc2[nH]1)N1C[C@H]2CCCN[C@H]2C1 (relative stereo) [Example 7, cis-(5-Chloro-1H-benzoimidazol-2-yl)-(octahydro-pyrrolo[3,4-b]pyridin-6-yl)-methanone] | 20 |
| CN[C@@H]1CCN(C(=O)c2cc3cc(C)ccc3[nH]2)C1 [Example 21, (R)-(3-Methylamino-pyrrolidin-1-yl)-(5-methyl-1H-indol-2-yl)-methanone] | 280 |

| SMILES | Ki [nM] |
| --- | --- |
| CN(C)C1CCN(C(=O)c2cc3cc(Cl)ccc3[nH]2)C1 (centres unmarked) [Example 25, (5-Chloro-1H-indol-2-yl)-(3-dimethylamino-pyrrolidin-1-yl)-methanone] | 1160 |
| CN(C)C1CCN(C(=O)c2nc3ccccc3[nH]2)C1 (centres unmarked) [Example 31, (1H-Benzoimidazol-2-yl)-(3-dimethylamino-pyrrolidin-1-yl)-methanone] | 8200 |
| O=C(c1cc2cc(Cl)ccc2[nH]1)N1C[C@H]2CCCN[C@H]2C1 [Example 11, (R,R)-(5-Chloro-1H-indol-2-yl)-(octahydro-pyrrolo[3,4-b]pyridin-6-yl)-methanone hydrochloride salt] | 27 |
| CNC1CCN(C(=O)c2cc3ccccc3[nH]2)C1 (centres unmarked) [Example 3, (1H-Indol-2-yl)-(3-methylamino-pyrrolidin-1-yl)-methanone trifluoroacetic acid salt] | 430 |
| NC1CCN(C(=O)c2cc3cc(Cl)ccc3[nH]2)C1 (centres unmarked) [Example 24, (3-Amino-pyrrolidin-1-yl)-(5-chloro-1H-indol-2-yl)-methanone hydrochloride salt] | 190 |
| Cc1ccc2[nH]c(C(=O)N3C[C@H]4CCCN[C@H]4C3)cc2c1 (relative stereo) [Example 29, cis-(5-Methyl-1H-indol-2-yl)-(octahydro-pyrrolo[3,4-b]pyridin-6-yl)-methanone hydrochloride salt] | 41 |
| CN[C@H]1CCN(C(=O)c2cc3cccc(C)c3[nH]2)C1 [Example 18, (S)-(3-Methylamino-pyrrolidin-1-yl)-(7-methyl-1H-indol-2-yl)-methanone] | > 10000 |
| O=C(c1cc2cc(Cl)ccc2[nH]1)N1C[C@H]2CCCN[C@H]2C1 (relative stereo) [Example 10, cis-(5-Chloro-1H-indol-2-yl)-(octahydro-pyrrolo[3,4-b]pyridin-6-yl)-methanone] | 8 |
| O=C(c1cc2c(F)cc(F)cc2[nH]1)N1C[C@H]2CCCN[C@H]2C1 (relative stereo) [Example 15, cis-(4,6-Difluoro-1H-indol-2-yl)-(octahydro-pyrrolo[3,4-b]pyridin-6-yl)-methanone hydrochloride salt] | 220 |
| O=C(c1cc2ccccc2[nH]1)N1C[C@@H]2C[C@H]1CN2 [Example 1, (S,S)-(2,5-Diaza-bicyclo[2.2.1]hept-2-yl)-(1H-indol-2-yl)-methanone hydrochloride salt] | 1110 |
| CN1CCC[C@@H]2CN(C(=O)c3cc4cc(Cl)ccc4[nH]3)C[C@@H]21 (relative stereo) [Example 28, cis-(5-Chloro-1H-indol-2-yl)-(1-methyl-octahydro-pyrrolo[3,4-b]pyridin-6-yl)-methanone] | 240 |
| CN(C)C1CCN(C(=O)c2cc3ccccc3[nH]2)C1 (centres unmarked) [Example 26, (3-Dimethylamino-pyrrolidin-1-yl)-(1H-indol-2-yl)-methanone] | 9000 |
| CN[C@H]1CCN(C(=O)c2cc3cc(Cl)ccc3[nH]2)C1 [Example 9, (S)-(5-Chloro-1H-indol-2-yl)-(3-methylamino-pyrrolidin-1-yl)-methanone] | 540 |
| CN[C@@H]1CCN(C(=O)c2cc3cc(F)ccc3[nH]2)C1 [Example 17, (R)-(5-Fluoro-1H-indol-2-yl)-(3-methylamino-pyrrolidin-1-yl)-methanone] | 38 |
| CN[C@H]1CCN(C(=O)c2cc3cc(C)ccc3[nH]2)C1 [Example 20, (S)-(3-Methylamino-pyrrolidin-1-yl)-(5-methyl-1H-indol-2-yl)-methanone] | > 10000 |
| O=C(c1cc2cc(Cl)ccc2[nH]1)N1C[C@@H]2CCCN[C@@H]2C1 [Example 12A, (S,S)-(5-Chloro-1H-indol-2-yl)-(octahydro-pyrrolo[3,4-b]pyridin-6-yl)-methanone] | 180 |
